Test results reported in ChEMBL document CHEMBL1201862, “PubChem BioAssay data set” (2004).
Active and inactive are the calls of the source.

Assays:
[1] = target: Beta-2 adrenergic receptor (Homo sapiens, UniProt P07550); experiment: beta2AR agonists driving receptor internalization, dose response, cell-based, FAP fluorogen, flow cytometry, cherry pick 1 (AID 588763); format: functional
[2] = target: Cytochrome P450 3A4 (Homo sapiens, UniProt P08684);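 further: CYP3A4 tested as one member of a cytochrome P450 panel screen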
Sequence of Cytochrome P450 3A4 (P08684 whole entry): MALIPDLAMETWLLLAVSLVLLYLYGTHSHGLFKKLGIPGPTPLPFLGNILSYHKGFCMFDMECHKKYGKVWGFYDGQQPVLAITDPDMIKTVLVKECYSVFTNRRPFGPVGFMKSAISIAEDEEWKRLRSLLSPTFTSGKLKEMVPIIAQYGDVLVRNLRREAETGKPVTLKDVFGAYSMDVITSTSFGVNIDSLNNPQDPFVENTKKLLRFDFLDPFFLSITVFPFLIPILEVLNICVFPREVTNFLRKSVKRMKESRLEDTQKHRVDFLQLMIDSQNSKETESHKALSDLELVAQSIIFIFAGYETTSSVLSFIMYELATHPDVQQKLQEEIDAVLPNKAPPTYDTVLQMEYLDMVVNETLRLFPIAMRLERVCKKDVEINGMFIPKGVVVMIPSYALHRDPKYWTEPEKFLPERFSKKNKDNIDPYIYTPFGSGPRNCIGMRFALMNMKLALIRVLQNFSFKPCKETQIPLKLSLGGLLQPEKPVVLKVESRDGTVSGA

[3] = target: T1, High affinity choline transporter 1 (Homo sapiens, UniProt Q9GZV3); experiment: CHT inhibitors, dose response, cell-based, 5-point CRC, membrane potential dye (AID 504840); format: functional
T1 sequence (Q9GZV3 whole entry): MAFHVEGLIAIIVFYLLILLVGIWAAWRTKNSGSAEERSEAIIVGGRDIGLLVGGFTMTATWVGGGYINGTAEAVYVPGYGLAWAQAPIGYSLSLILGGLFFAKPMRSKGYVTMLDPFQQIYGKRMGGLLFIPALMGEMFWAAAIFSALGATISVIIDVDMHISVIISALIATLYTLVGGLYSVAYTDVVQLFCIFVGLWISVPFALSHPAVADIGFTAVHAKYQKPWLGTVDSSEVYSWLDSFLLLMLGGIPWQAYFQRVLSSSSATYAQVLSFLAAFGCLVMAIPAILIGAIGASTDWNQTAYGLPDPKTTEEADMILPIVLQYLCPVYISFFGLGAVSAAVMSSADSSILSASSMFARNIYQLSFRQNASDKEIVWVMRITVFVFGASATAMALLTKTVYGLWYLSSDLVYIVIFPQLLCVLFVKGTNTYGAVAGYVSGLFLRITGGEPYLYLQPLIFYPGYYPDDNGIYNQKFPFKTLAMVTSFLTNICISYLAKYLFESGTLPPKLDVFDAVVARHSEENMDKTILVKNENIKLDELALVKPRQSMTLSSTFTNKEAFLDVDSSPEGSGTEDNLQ

[4] = target: T2, Protein skinhead-1 (Caenorhabditis elegans, UniProt P34707); format: functional
T2 sequence (P34707 whole entry): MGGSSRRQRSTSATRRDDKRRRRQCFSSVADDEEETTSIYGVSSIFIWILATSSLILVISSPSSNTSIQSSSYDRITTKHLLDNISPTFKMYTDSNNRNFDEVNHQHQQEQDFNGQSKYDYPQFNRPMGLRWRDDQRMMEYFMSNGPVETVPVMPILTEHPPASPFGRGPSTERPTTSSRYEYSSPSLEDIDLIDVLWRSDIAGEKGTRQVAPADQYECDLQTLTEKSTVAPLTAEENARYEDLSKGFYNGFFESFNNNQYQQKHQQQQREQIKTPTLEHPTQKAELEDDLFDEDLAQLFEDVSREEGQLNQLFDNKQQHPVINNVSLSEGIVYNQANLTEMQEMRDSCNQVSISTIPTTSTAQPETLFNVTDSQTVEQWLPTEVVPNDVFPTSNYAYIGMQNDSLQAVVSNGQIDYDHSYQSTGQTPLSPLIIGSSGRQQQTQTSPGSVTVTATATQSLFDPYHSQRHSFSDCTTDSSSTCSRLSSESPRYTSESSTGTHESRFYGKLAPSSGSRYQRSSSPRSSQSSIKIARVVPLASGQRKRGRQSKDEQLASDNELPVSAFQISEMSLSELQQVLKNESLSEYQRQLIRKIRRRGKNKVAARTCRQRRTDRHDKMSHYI

[5] = target: T3, Carboxy-terminal domain RNA polymerase II polypeptide A small phosphatase 1 (Homo sapiens, UniProt Q9GZU7); experiment: inhibitors of CTDSP1, concentration-response testing, biochemical assay, absorbance-based, actives from ultra-high-throughput screening (AID 540297); format: functional
T3 sequence (Q9GZU7 whole entry): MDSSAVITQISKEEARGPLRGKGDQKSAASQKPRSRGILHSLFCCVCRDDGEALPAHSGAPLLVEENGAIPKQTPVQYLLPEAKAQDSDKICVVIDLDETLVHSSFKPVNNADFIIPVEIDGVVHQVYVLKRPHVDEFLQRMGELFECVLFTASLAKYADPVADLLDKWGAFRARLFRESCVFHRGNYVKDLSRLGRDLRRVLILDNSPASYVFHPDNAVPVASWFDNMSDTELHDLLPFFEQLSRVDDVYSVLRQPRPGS

[6] = target: T4, Sentrin-specific protease 8 (Homo sapiens, UniProt Q96LD8); format: functional;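 further: luminescence read-out of SENP8 inhibition, dose-response confirmation following an ultra-high-throughput screen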
T4 sequence (Q96LD8 whole entry): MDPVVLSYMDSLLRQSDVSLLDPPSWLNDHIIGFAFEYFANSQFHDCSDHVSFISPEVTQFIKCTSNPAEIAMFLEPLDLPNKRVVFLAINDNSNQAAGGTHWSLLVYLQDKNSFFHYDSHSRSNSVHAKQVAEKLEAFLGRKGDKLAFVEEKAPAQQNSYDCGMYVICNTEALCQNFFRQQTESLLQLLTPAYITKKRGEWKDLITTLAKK

[7] = target: T5, Caspase-3 (Homo sapiens, UniProt P42574); format: functional;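 further: Dose-response selectivity test against caspase-3 for candidate inhibitors of sentrin-specific proteases (SENPs)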
T5 sequence (P42574 whole entry): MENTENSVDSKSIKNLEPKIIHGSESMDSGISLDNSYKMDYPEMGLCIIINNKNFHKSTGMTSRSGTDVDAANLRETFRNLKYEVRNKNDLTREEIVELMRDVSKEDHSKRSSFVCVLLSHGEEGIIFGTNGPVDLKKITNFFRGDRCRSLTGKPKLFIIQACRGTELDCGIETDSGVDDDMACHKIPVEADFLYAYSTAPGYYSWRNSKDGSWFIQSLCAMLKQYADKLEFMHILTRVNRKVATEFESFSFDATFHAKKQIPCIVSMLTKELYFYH

[8] = target: T6, Sentrin-specific protease 7 (Homo sapiens, UniProt Q9BQF6); format: functional;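 further: Luminescence-based dose-response confirmation of ultra-high-throughput screening hits, measuring inhibition of SENP7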
T6 sequence (Q9BQF6 whole entry): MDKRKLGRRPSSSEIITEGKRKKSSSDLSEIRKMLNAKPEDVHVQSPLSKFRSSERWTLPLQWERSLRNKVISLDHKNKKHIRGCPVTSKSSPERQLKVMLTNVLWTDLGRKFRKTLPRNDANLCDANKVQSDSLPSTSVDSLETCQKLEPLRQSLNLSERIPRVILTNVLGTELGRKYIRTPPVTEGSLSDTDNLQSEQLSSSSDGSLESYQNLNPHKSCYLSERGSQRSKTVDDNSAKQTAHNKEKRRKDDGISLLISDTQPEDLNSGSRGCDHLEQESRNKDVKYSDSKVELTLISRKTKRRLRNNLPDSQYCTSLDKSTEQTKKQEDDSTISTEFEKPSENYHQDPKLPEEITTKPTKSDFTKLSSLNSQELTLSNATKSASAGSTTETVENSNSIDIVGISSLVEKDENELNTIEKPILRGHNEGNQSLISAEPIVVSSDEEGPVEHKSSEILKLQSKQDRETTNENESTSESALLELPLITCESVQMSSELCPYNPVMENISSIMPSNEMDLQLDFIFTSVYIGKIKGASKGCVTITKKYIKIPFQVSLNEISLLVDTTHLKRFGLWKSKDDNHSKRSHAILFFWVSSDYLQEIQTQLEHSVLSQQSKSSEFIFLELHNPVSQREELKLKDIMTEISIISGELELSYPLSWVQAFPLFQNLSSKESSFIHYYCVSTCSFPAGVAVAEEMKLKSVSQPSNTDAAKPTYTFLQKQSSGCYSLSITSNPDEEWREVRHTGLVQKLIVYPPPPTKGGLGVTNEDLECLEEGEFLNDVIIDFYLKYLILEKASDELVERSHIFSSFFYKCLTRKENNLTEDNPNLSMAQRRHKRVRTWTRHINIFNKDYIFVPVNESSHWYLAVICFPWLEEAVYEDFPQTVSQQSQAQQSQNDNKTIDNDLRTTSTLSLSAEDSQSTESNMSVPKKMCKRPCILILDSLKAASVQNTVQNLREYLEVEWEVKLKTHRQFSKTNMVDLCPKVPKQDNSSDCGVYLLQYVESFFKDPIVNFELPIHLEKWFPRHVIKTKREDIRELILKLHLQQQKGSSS

[9] = target: T7, Sentrin-specific protease 6 (Homo sapiens, UniProt Q9GZR1); format: functional;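 further: Luminescence-based dose-response confirmatory assay of SENP6 inhibition, following up an ultra-high-throughput screen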
T7 sequence (Q9GZR1 whole entry): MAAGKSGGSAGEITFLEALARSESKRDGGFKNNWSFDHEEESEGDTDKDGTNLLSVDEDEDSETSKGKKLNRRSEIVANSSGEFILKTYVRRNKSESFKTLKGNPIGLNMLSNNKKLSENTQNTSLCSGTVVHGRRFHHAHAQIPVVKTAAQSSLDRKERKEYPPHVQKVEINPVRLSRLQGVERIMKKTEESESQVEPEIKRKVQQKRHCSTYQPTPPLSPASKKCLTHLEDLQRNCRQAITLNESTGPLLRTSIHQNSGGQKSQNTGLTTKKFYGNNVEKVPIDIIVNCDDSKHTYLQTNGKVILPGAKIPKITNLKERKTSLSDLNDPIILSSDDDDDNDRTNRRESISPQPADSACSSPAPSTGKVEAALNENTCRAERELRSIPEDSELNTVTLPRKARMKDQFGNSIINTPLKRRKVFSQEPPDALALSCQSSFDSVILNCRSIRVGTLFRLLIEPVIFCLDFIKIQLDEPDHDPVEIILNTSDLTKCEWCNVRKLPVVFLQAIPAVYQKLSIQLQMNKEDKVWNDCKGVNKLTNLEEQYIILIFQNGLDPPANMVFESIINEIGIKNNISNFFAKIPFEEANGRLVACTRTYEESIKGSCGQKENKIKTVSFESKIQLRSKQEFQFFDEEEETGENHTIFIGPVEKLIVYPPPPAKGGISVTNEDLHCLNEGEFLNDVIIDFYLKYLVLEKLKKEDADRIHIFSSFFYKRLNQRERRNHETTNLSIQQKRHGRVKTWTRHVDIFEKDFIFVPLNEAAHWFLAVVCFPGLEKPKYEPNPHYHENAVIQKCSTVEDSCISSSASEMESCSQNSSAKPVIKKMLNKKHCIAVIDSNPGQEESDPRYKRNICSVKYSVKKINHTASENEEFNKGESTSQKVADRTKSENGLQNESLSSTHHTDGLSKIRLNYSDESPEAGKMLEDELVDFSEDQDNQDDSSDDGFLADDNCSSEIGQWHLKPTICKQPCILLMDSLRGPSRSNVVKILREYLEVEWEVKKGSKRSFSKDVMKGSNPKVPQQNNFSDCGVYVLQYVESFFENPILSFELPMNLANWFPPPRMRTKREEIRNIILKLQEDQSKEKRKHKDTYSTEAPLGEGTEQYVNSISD

[10] = target: T8, Heat shock factor protein 1 (Mus musculus, UniProt P38532); experiment: HSF1 potentiators in luciferase reporter cells, confirmation, cell-based, NIH3T3, luminescence, dose retest (AID 435004); format: functional;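 further: stress induced by proteasome inhibitor MG132 added 30 min after compound; luciferase reporter driven by HSF1 response element in NIH3T3 cells; actives raise luminescence as potentiators of the MG132 stress response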
T8 sequence (P38532 whole entry): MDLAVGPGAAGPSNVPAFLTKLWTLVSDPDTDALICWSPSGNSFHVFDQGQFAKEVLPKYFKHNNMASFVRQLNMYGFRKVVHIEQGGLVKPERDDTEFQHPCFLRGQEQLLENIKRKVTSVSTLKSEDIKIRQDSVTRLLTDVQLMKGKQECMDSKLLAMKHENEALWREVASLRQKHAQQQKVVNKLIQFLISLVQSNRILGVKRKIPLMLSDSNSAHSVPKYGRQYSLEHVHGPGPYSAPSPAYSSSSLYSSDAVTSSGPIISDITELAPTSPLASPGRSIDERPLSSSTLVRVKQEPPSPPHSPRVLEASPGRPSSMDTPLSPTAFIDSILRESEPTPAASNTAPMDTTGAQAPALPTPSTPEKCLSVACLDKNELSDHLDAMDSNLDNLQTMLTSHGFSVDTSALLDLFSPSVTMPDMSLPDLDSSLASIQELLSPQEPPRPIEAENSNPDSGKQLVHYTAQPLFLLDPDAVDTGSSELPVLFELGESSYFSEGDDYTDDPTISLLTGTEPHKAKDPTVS

[11] = target: DNA dC->dU-editing enzyme APOBEC-3A (Homo sapiens, UniProt P31941); experiment: Dose Response confirmation of small molecule APOBEC3A DNA Deaminase Inhibitors via a fluorescence-based single-stranded DNA deaminase assay. [Related pubchem assays (depositor defined):AID493011, AID493024]; format: functional
Sequence of DNA dC->dU-editing enzyme APOBEC-3A (P31941 whole entry): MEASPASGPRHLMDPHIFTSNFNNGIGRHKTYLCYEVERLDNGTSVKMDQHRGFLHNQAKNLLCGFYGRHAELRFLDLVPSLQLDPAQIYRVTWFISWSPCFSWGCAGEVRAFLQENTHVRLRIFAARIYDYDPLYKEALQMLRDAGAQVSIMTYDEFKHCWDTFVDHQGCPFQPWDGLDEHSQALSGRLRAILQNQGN

[12] = target: DNA dC->dU-editing enzyme APOBEC-3G (Homo sapiens, UniProt Q9HC16); format: functional;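 further: Dose-response counterscreen measuring inhibition of APOBEC3G DNA deaminase activity, run while confirming APOBEC3A inhibitors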
Sequence of DNA dC->dU-editing enzyme APOBEC-3G (Q9HC16 whole entry): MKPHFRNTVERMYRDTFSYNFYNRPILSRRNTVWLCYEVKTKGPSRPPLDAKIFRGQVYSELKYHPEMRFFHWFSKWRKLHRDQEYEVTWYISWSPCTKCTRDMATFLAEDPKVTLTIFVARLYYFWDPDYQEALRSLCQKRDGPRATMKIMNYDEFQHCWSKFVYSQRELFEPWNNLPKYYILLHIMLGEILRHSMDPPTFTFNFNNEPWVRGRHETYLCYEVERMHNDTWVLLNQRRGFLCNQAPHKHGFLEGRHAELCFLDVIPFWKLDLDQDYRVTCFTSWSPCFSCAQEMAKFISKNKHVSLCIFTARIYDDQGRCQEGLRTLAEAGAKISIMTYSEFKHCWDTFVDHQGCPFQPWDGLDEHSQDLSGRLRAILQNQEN

Sequence of Beta-2 adrenergic receptor (P07550 whole entry): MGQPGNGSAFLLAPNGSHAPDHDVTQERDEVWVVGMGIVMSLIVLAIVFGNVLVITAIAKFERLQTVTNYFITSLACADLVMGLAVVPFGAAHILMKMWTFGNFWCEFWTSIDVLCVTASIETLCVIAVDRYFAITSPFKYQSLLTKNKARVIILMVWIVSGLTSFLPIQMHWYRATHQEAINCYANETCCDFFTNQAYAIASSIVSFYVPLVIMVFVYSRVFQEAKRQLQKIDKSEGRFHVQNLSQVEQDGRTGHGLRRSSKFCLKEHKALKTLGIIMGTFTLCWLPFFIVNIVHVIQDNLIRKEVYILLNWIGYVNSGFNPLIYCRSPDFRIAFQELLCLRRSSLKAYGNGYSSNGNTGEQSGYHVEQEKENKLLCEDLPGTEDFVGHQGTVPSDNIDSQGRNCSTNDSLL

Row | IC50 [7] | IC50 [8] | IC50 [9] | SMILES | IC50 [6] | further results
1 |  |  |  | COc1ccc(C2=NN(C(=O)c3cccs3)C(c3ccc(OC)cc3)C2)cc1 (stereo unspecified) |  | EC50 [1]: 4.84 µM (active)
2 |  |  |  | CC(C)OC(=O)CN1CCN(C2c3ccccc3-c3ccccc32)CC1 |  | AC50 [2]: 25.1 µM (inconclusive); IC50 [3]: 10.7 µM (active); IC50 [4]: > 100 µM (inactive)
3 |  |  |  | C[C@H]1CN([C@@H](C)CO)C(=O)Cc2cc(NS(=O)(=O)c3cn(C)cn3)ccc2O[C@@H]1CN(C)C(=O)Nc1ccc(F)cc1 |  | IC50 [5]: 33.7 µM (active)
4 |  |  |  | Cc1ncc(CN2CCCC(C(=O)Nc3ccc(-c4cccc(F)c4)cc3)C2)cn1 (stereo unspecified) |  | EC50 [1]: 0.695 µM (active)
5 | 13.3 µM (active) | 16.4 µM (active) | 6.53 µM (active) | C=COC(=O)CSc1nc(-c2cccs2)ccc1C#N | 8.96 µM (active) | 
6 | 6.3 µM (active) | 2.98 µM (active) | > 100 µM (inactive) | CS(=O)(=O)Nc1ccc(C(=O)Nc2ccc3ccccc3c2)cc1 | > 100 µM (inactive) | 
7 | 28.9 µM (active) | 4.6 µM (active) | > 100 µM (inactive) | Cc1ccc(C(=O)c2sc3nsc(C)c3c2N)cc1 | > 100 µM (inactive) | EC50 [10]: > 260 µM (inconclusive)
8 |  |  |  | C[n+]1ccc(C(=O)NCc2ccccc2)cc1 [ENISAMIUM IODIDE] |  | IC50 [11]: 2.98 µM (active); IC50 [5]: 9.76 µM (active); IC50 [12]: 4.98 µM (active)
9 | 18.9 µM (active) | 7.31 µM (active) | 25.5 µM (active) | O=C(Nc1cccc(Cl)c1)N1CCc2ccccc2C1 | 26.1 µM (active) | 
